# From patent publication US10220029B2, “Pharmaceutical composition comprising glutarimide derivatives and use thereof in the treatment of eosinophilic diseases” (OBSCHESTVO S ORGANICHENNOI OTVETSTVENNOSTIYU …, priority 2013, dated 2019)
# Tests used:
# [1] = test system: model of leukotriene-induced eosinophilic lung inflammation in guinea pigs; test: Content of cell elements in BAL in the model of leukotriene-induced eosinophilic lung inflammation in guinea pigs; format: in vivo, guinea pig; conditions: four times, BAL 48 hours after LTD4, n = 8
# Excerpt: The model of leukotriene-induced eosinophilic lung inflammation in guinea pigs was realized by a standard method [Underwood DC1, Osborn R R, Newsholme S J, Torphy T J, Hay D W. Persistent airway eosinophilia after leukotriene (LT) D4 administration in the guinea pig: modulation by the LTD4 receptor antagonist, pranlukast, or an interleukin-5 monoclonal antibody// Am J Respir Crit Care Med. 1996 October; 154(4 Pt 1):850-7]. A solution of leukotriene D4 (LTD4, Cayman Chemical, USA) at a concentration of […] (a flow rate of 250 mL/hr) was inhaled to male guinea pigs (250-300 g) under conditions of a double-chamber plethysmograph (Emka Technologies, France) for one minute. The studied compound was administered to the animals by the intragastric route four times: 24 hours and 1 hour before and 24 hours and 45 hours after the inhalation of LTD4. The reference preparation, montelukast (0.8 mg/kg), was administered one time by the intragastric route one hour before the inhalation of LTD4. Bronchoalveolar lavage was taken 48 hours after the inhalation of LTD4, and the total lymphocyte count and leukocyte formula were determined in the lavage. The number of guinea pigs in a group was 8.
# [2] = test system: model of allergic rhinitis in guinea pigs; test: Content of cell elements in the nasal lavage in the model of allergic rhinitis in guinea pigs; format: in vivo, guinea pig; conditions: 14 mg/kg intragastric, 3 times; nasal lavage 24 hours after last ovalbumin; n = 8
# Description: The model of allergic rhinitis in guinea pigs was realized by a standard method [Vishnu N. Thakare, M. M. Osama, Suresh R. Naik. […] 2013 September; 17(1):18-25].
# Guinea pigs (250-300 g) were immunized with 4-time (on days 0, 7, 14, and 21) intragastric administration of ovalbumin (100 μg/pig) and aluminium hydroxide (5 mg/pig), both of which were diluted and suspended in a physiological saline solution. […], a solution of ovalbumin (60 mg/mL) was administered intranasally to each nostril of the animals at a dose 20 μL. On day 35, the animals received subcutaneously an ovalbumin solution (200 μg/mL, 25 μL); the animal back was previously shaved in the site of administration. Swelling and redness at the injection site served as a support of sensibilisation. On day 42 of the study, an ovalbumin solution (60 mg/mL, 20 μL/nostril) was administered intranasally. A group of pseudoimmunized animals was formed to control the formation of exactly allergic inflammation: on days 0, 7, 14, and 21, the pigs received a solution of aluminium hydroxide (5 mg/pig), and on days 28 and 35, they received a physiological saline solution, and on day 42, a solution of ovalbumin (60 mg/mL, 20 μL/nostril).
# The studied compounds (14 mg/kg) were administered 3 times by the intragastric route: 48, 24, and 1 hour before the last administration of ovalbumin. The reference preparation, dexamethasone, was administered one time by the intragastric route, 3 hours before the last intranasal administration of ovalbumin.
# Clinical manifestations, such as the number of sneezes and nose scratchings, were registered for 2 hours after the last administration of ovalbumin. Nasal lavage was taken 24 hours after the last administration of ovalbumin, and in this lavage, the total lymphocyte count and leukocyte formula were determined. The number of guinea pigs in a group was 8.
# [3] = test system: model of atopic dermatitis in mice; test: Response index in DNCB-induced atopic (allopathic) dermatitis in mice; format: in vivo, male Balb/c mice; conditions: n = 12
# Description: The model of allopathic dermatitis was realized by a standard method [Mechanism of dinitrochlorobenzene-induced dermatitis in mice: role of specific antibodies in pathogenesis//PLoS One. 2009; 4(11)].
# On days 0 and 12 of the study, 100 μL of a 2% solution of 1-chloro-2,4-dinitrobenzene (DNCB, Sigma-Aldrich, US) in 95% ethanol was applied to shaved sites in the backs of male Balb/c mice. On day 17 of the study, to the right “studied” ear of the animals, 20 μL of the alcohol solution of 2% DNCB was applied two times with a one-hour interval. The studied compound and the reference preparation, dexamethasone, were administered by the intragastric route once daily on days 8-17 of the study.
# On day 18 of the study, the animals were euthanized in a CO2 camera. The weights of the “studied” and “control” ears were measured. A response index (RI) expressed in percentage of a difference in the weights of the “studied” and “control” ears was calculated.
structure (smiles),measurement,setting,value
"O=C1CCCC(=O)N1CCc1cnc[nH]1 [Compound 1, 1-(2-(1H-imidazol-4-yl)ethyl)piperidine-2,6-dione]","Eosinophils, content of cell elements in 1 μL of BAL",[1]; 0.14 mg/kg intragastric,916 ± 144*& in 1 μL of BAL
same,"Leukocytes, content of cell elements in 1 μL of BAL",[1]; 0.14 mg/kg intragastric,2638 ± 463*& in 1 μL of BAL
same,"Lymphocytes, content of cell elements in 1 μL of BAL",[1]; 0.14 mg/kg intragastric,112 ± 27 in 1 μL of BAL
same,"Macrophages, content of cell elements in 1 μL of BAL",[1]; 0.14 mg/kg intragastric,1360 ± 323 in 1 μL of BAL
same,"Neutrophils, content of cell elements in 1 μL of BAL",[1]; 0.14 mg/kg intragastric,249 ± 50 in 1 μL of BAL
same,"Eosinophils, content of cell elements in 1 μL of BAL",[1]; 1.4 mg/kg intragastric,856 ± 288*& in 1 μL of BAL
same,"Leukocytes, content of cell elements in 1 μL of BAL",[1]; 1.4 mg/kg intragastric,3413 ± 1022 in 1 μL of BAL
same,"Lymphocytes, content of cell elements in 1 μL of BAL",[1]; 1.4 mg/kg intragastric,144 ± 89 in 1 μL of BAL
same,"Macrophages, content of cell elements in 1 μL of BAL",[1]; 1.4 mg/kg intragastric,2134 ± 705 in 1 μL of BAL
same,"Neutrophils, content of cell elements in 1 μL of BAL",[1]; 1.4 mg/kg intragastric,279 ± 97 in 1 μL of BAL
same,"Eosinophils, content of cell elements in 1 μL of BAL",[1]; 14 mg/kg intragastric,580 ± 124*& in 1 μL of BAL
same,"Leukocytes, content of cell elements in 1 μL of BAL",[1]; 14 mg/kg intragastric,2250 ± 373*& in 1 μL of BAL
same,"Lymphocytes, content of cell elements in 1 μL of BAL",[1]; 14 mg/kg intragastric,71 ± 28 in 1 μL of BAL
same,"Macrophages, content of cell elements in 1 μL of BAL",[1]; 14 mg/kg intragastric,1444 ± 258 in 1 μL of BAL
same,"Neutrophils, content of cell elements in 1 μL of BAL",[1]; 14 mg/kg intragastric,155 ± 36 in 1 μL of BAL
same,"Eosinophils, content of cell elements in 1 μL of nasal lavage",[2],521 ± 129& in 1 μL of nasal lavage
same,"Leukocytes, content of cell elements in 1 μL of nasal lavage",[2],1300 ± 254& in 1 μL of nasal lavage
same,"Lymphocytes, content of cell elements in 1 μL of nasal lavage",[2],6 ± 6 in 1 μL of nasal lavage
same,"Macrophages, content of cell elements in 1 μL of nasal lavage",[2],405 ± 130 in 1 μL of nasal lavage
same,"Neutrophils, content of cell elements in 1 μL of nasal lavage",[2],243 ± 58*& in 1 μL of nasal lavage
same,Response index (%),[3]; 0.3 mg/kg intragastric once daily on days 8-17,74.4 ± 7.3*& %
same,Response index (%),[3]; 3 mg/kg intragastric once daily on days 8-17,69.5 ± 8.2*& %
same,Response index (%),[3]; 30 mg/kg intragastric once daily on days 8-17,69.1 ± 8*& %
